The values below come from patent publication US20050032149A1, “Enzyme catalyzed isotope labeling” (priority 2003, published 2005).

One test deals with T1, α-chymotrypsin (Bos taurus, UniProt P00766).
T1 construct: purchased Sigma (St. Louis, Mo.); host or cells: bovine pancreas
Kind of test: Chymotryptic digestion of apomyoglobin in H2 18O, 18O2-coding of peptides. The class given is biochemical, Bovine. As to conditions: apomyoglobin 51 nmol, 200 μg α-chymotrypsin, H2 18O pH 8.0, room temperature. Here is the method:
Chymotryptic Digestion of Apomyoglobin in H2^18O. An apomyglobin (51 nmol) suspension in H2^18O (24 mM Tris/HCl, pH 8.0) was incubated with 200 μg of α-chymotrypsin (bovine pancreas, Sigma) at room temperature. Aliquots were taken at different time intervals for MALDI-FT-ICR analysis.
MALDI-FT-ICR Mass Spectrometric Analysis. Reaction mixtures in H2^18O were diluted with 70:30 acetonitrile:water (0.1% TFA) to obtain a final peptide concentration of about 10 pmol/μl. A 0.6 μL aliquot of this solution was applied on the MALDI stainless steel probe followed by 0.6 μL of a solution of 2,5-dihydroxybezoic acid (500 mM) in 70:30 acetonitrile:water (0.1% TFA). The mixture was gently stirred during the crystallization. An FT-ICR instrument equipped with a 4.7 T actively shielded magnet (lonspec Co., Irvine, Calif.) was used for this study. An external MALDI ion source was differentially pumped. A pulsed (5 ns width) Nd:YAG laser (Minilite, Contimuum, Inc., Santa Clara, Calif.) was operated at 355 nm (triple of its fundamental frequency). The laser energy was attenuated by adjusting the angle between two Glan-laser prism polarizers (Karl-Lambrecht Co., Chicago, Ill.). Ions were injected into the ICR cylindrical cell by an RF-only quadrupole ion guide. A 4 ms nitrogen pulse was used to trap the ions and remove their excess of kinetic energy. After a 4 s delay, the ions were excited by a 35 Vb-p RF sweep during 4 ms (29-180 kHz). The image signal was amplified and digitized at an acquisition rate of 2 MHz (512 k data point) resulting in the recording of a 262.1 ms time domain, which gave a typical mass resolution of 10 000. […] In mass spectra, heights for the monoisotope peaks for peptides, the peaks with masses 2 Da higher, and the peaks with masses 4 Da higher were measured as peak intensities I0, I2, and I4, respectively.
Exchange Reactions Catalyzed by Chymotrypsin. Chymotryptic proteolysis of apomyoglobin in H2^18O was analyzed by MALDI-FT-ICR. […]

Test [1] concerns the target T2, trypsin (Sus scrofa, UniProt P00761).
T2 construct: purchased Promega (Madison, Wis.)
Put plainly: Control experiment: non-Arg/Lys-terminated peptides incubated with trypsin in H2 18O. The class given is biochemical. Particulars: mixture VEPIPY 710 μM and YGGFM 500 μM, 200 mM Tris, 2 μg trypsin, H2 18O pH 8.5, room temperature overnight. Here is the method: For the process of ^18O2-coding of Arg- and Lys-terminated peptides through two exchange reactions, a sequential mechanism (FIG. 7) is supported by the kinetics shown in FIG. 5. Trypsin-catalyzed exchange reactions are substrate-specific; only peptides with Arg or Lys in the P1 position can undergo exchanges catalyzed by trypsin. As a control experiment, a mixture of VEPIPY (710 μM) and YGGFM (500 μM) was incubated with 200 mM Tris and 2 μg trypsin in H2^18O (pH 8.5) at room-temperature overnight. […] Thus, there was not significant catalysis from either the enzyme or the buffer.

Test [2] has as its target T2, trypsin. Kind of test: Kinetics of 16O-to-18O exchange of YGGFMK and YGGFMR catalyzed by trypsin (MALDI-FT-ICR-MS). In kind it is biochemical. Here is the method:
Kinetics Measurement of ^16O-to-^18O Exchange of YGGFMK and YGGFMR Catalyzed by Trypsin. […] Aliquots of the reaction mixture were taken at different time intervals for the first 10% of reactant conversion. The reaction temperature was maintained at 26±1° C., and the ionic strength was controlled by NaCl (45 mM). The reaction volume was typically 20 μL. The change of the peak intensity for the peptide was monitored by MALDI-FT-ICR-MS. Substrate concentrations used in the kinetics studies ranged between 0.2 KM and 5 KM, and measurements were duplicated for each substrate concentration. At high concentrations (>10 mM) of YGGFMK, acetonitrile (10% v/v) was used to increase the substrate solubility in reaction buffer. A full course of ^16O-to-^18O exchange reaction of YGGFMR was also recorded using similar conditions.
MALDI-FT-ICR Mass Spectrometric Analysis. Reaction mixtures in H2^18O were diluted with 70:30 acetonitrile:water (0.1% TFA) to obtain a final peptide concentration of about 10 pmol/μl. A 0.6 μL aliquot of this solution was applied on the MALDI stainless steel probe followed by 0.6 μL of a solution of 2,5-dihydroxybezoic acid (500 mM) in 70:30 acetonitrile:water (0.1% TFA). The mixture was gently stirred during the crystallization. An FT-ICR instrument equipped with a 4.7 T actively shielded magnet (lonspec Co., Irvine, Calif.) was used for this study. An external MALDI ion source was differentially pumped. A pulsed (5 ns width) Nd:YAG laser (Minilite, Contimuum, Inc., Santa Clara, Calif.) was operated at 355 nm (triple of its fundamental frequency). The laser energy was attenuated by adjusting the angle between two Glan-laser prism polarizers (Karl-Lambrecht Co., Chicago, Ill.). Ions were injected into the ICR cylindrical cell by an RF-only quadrupole ion guide. A 4 ms nitrogen pulse was used to trap the ions and remove their excess of kinetic energy. After a 4 s delay, the ions were excited by a 35 Vb-p RF sweep during 4 ms (29-180 kHz). The image signal was amplified and digitized at an acquisition rate of 2 MHz (512 k data point) resulting in the recording of a 262.1 ms time domain, which gave a typical mass resolution of 10 000. The average of single time domain transients (more than 10 times) was Fourier transformed into the corresponding frequency domain (two zero fills and Blackman apodization).
MALDI-FT-ICR Mass Spectrometric Analysis of ^16O-to-^18O Exchange Reactions. […] The residual ^16O content in H2^18O (less than 5%) was not considered in formulation of the equation.
Kinetic Constants for ^16O-to-^18O Exchange of YGGFMK and YGGFMR Catalyzed by Trypsin. […] The time course for the first 10% of the reaction was limited to less than 30 min by adjusting the concentration of trypsin.
From the plots, values for kcat's, KM's, and kcat/KM's were calculated.

[3] abbreviates: trypsin-catalyzed 16O-to-18O exchange, double reciprocal plot, pH 8.0, 26±1° C.

T2 sequence (P00761 9-231): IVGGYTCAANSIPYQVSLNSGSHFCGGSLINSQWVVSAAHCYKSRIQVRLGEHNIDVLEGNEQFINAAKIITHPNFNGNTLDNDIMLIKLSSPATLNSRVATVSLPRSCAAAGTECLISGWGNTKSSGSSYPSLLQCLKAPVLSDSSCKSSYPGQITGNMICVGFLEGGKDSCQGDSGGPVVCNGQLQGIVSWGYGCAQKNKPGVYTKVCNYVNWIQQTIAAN

For “GADAQGAMTKALELF [CT9, Chymotryptic peptide of apomyoglobin]”, the “time to complete 18O2-coding” value with α-chymotrypsin was 20 h.

“RNDIMKY [CT10, Chymotryptic peptide of apomyoglobin]”: in the test with α-chymotrypsin, the “time to complete 18O2-coding” value was 1.5 h.

For the substance “TGHPETLEKF [CT4, Chymotryptic peptide of apomyoglobin]”, the “time to complete 18O2-coding” value with α-chymotrypsin is 3.5 h.

As to VEPIPY, the exchange of oxygens result on trypsin [1] is “No detectable exchange of oxygens”.

For the substance YGGFM, on trypsin [1], the exchange of oxygens result is “No detectable exchange of oxygens”.

In the case of YGGFMK, the results for the Km at trypsin [2] (setting [3]) and on trypsin [2] (trypsin-catalyzed exchange) were 4400 ± 700 µM and 4400 µM, respectively. Also, the values for the kcat at trypsin [2] (setting [3]) and on trypsin [2] (trypsin-catalyzed exchange) were 2800 ± 300 min⁻¹ and 2800+−300 per min, respectively.

As to YGGFMR, the Km on trypsin [2] (setting [3]) stood at 1300 ± 300 µM; at trypsin [2] (trypsin-catalyzed exchange), 1300 µM. Moreover, the kcat was 3500 ± 500 min⁻¹ on trypsin [2] (setting [3]) and 3500+−500 per min on trypsin [2] (trypsin-catalyzed exchange).

As usually defined, the Km is the substrate concentration at which the rate is half of its maximum. As usually defined, the kcat is the maximal rate divided by the concentration of active sites.
